Measurements as given in US11840541B2 (priority 2014, dated 2023).
“Also recorded” adds a separate entry of the source.

Assays:
Human DOR = target: T1, Human DOR (Homo sapiens, UniProt P41143); assay: cell-based
T1 construct: expressed in transfected cells; host or cells: HEK-293T

Human KOR [1] = target: T2, Human KOR (Homo sapiens, UniProt P41145); assay: cell-based; settings: for Emax: read-out: Emax in parentheses, Human KOR
T2 construct: expressed in transfected cells; host or cells: HEK-293T

Human MOR = target: T3, Human MOR (Homo sapiens, UniProt P35372); assay: cell-based
T3 construct: expressed in transfected cells; host or cells: HEK-293T

Human KOR [2] = target: T2, Human KOR; assay: BRET functional assay, inhibition of reference agonist U-50,488 (antagonist mode), human KOR; format: cell-based
[3] = EC50 at indicated opioid receptor, Human DOR
[4] = EC50 at indicated opioid receptor, Human KOR
[5] = EC50 at indicated opioid receptor, Human MOR

T1 sequence (P41143 whole entry): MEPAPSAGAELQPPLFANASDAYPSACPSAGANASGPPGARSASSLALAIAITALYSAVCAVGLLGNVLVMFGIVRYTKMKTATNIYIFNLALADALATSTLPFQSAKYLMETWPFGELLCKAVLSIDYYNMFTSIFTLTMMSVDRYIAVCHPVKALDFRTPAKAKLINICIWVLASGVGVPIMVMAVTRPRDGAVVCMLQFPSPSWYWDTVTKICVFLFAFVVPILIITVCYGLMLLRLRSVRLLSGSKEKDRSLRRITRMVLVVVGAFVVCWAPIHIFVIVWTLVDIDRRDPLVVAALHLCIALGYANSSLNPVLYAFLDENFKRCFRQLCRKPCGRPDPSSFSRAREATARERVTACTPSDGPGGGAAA
T2 sequence (P41145 whole entry): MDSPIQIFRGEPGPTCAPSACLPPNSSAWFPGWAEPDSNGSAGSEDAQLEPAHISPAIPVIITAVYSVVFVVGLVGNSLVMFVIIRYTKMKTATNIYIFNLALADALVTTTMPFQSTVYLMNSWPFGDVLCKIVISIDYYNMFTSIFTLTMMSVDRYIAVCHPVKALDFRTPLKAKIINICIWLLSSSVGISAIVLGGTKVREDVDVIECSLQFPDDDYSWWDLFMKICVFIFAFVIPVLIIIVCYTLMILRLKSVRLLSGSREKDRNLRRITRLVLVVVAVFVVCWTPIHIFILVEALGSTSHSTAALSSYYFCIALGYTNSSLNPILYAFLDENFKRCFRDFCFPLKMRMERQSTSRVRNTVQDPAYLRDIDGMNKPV
T3 sequence (P35372 whole entry): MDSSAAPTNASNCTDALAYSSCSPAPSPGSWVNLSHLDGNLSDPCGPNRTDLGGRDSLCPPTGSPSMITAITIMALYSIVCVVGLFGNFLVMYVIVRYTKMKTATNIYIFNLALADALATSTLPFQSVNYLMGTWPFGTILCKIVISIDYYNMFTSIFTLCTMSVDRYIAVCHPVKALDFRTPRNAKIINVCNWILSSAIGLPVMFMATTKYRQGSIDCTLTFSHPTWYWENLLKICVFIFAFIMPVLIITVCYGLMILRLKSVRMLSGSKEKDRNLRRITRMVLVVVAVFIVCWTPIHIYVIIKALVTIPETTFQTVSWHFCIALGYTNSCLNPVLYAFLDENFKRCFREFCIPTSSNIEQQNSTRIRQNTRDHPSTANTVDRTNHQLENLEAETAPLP

Row | SMILES | EC50 (Human DOR; [3]) [µM] | EC50 (Human KOR [1]; [4]) [µM] | EC50 (Human MOR; [5]) [µM] | EC50 (Human DOR; EC50, Human DOR) [µM] | EC50 (Human KOR [1]; EC50, Human KOR) [µM] | EC50 (Human MOR; EC50, Human MOR) [µM] | further results
1 | CCC1CC2CC3c4oc5cc(O)ccc5c4CCN(C2)C13 (stereo not drawn) [Compound 35f] | > 10 | < 10 | < 10 | – | – | – | –
2 | Oc1ccc2oc3c(c2c1)CCN1CC2CC(Cc4ccccc4)C1C3C2 (stereo not drawn) [Compound 35g] | < 10 | < 10 | < 10 | – | – | – | –
3 | CCCCC1CC2CC3c4oc5ccc(O)cc5c4CCN(C2)C13 (stereo not drawn) [Compound 35h] | < 10 | < 10 | < 10 | – | – | – | –
4 | COCC1CC2CC3c4oc5ccc(O)cc5c4CCN(C2)C13 (stereo not drawn) [Compound 35i] | < 10 | < 10 | < 10 | – | – | – | –
5 | OCC1CC2CC3c4oc5ccc(O)cc5c4CCN(C2)C13 (stereo not drawn) [Compound 35j] | < 10 | < 10 | < 10 | – | – | – | –
6 | CCC1CC2CC3c4oc5cc(F)c(O)cc5c4CCN(C2)C13 (stereo not drawn) [Compound 35k] | < 10 | < 10 | < 10 | – | – | – | –
7 | Oc1ccc2oc3c(c2c1)CCN1CC2CC(c4ccccc4)C1C3C2 (stereo not drawn) [Compound 35l] | > 10 | > 10 | > 10 | – | – | – | –
8 | Oc1ccc2oc3c(c2c1)CCN1CC2CC(c4ccccc4)C1C3C2 (stereo not drawn) [Compound 35m] | < 10 | > 100 | < 10 | – | – | – | –
9 | CCC1CC2CC3c4sc5ccc(O)cc5c4CCN(C2)C13 (stereo not drawn) [Compound 35n] | > 100 | < 10 | < 10 | – | – | – | –
10 | CCC1CC2CC3c4oc5cccc(OC)c5c4CCN(C2)C13 (stereo not drawn) [Compound 51b] | – | – | – | > 100 | > 10 | > 10 | –
11 | CCC1CC2CC3c4oc5cc(C)c(OC)cc5c4CCN(C2)C13 (stereo not drawn) [Compound 51c] | – | – | – | > 10 | > 10 | > 10 | –
12 | CCC1CC2CC3c4oc5c(O)cccc5c4CCN(C2)C13 (stereo not drawn) [Compound 52a] | > 100 | > 10 | > 100 | – | – | – | –
13 | CCC1CC2CC3c4oc5cccc(O)c5c4CCN(C2)C13 (stereo not drawn) [Compound 52b] | > 100 | > 100 | > 10 | – | – | – | –
14 | CCC1CC2CC3c4oc5cc(C)c(O)cc5c4CCN(C2)C13 (stereo not drawn) [Compound 52c] | > 10 | > 10 | > 10 | – | – | – | –
15 | COCC1CC2CC3c4oc5ccc(OC)cc5c4CCN(C2)C13 (stereo not drawn) [Compound 59g] | – | – | – | > 100 | < 10 | > 100 | –
16 | CC1C2CCC3C(C2)c2oc4ccc(O)cc4c2CCN13 (stereo not drawn) [Compound 60d] | – | – | – | > 100 | < 10 | < 10 | –
17 | OCC1CC2CC3c4oc5ccc(O)cc5c4CCN(C2)C13 (stereo not drawn) [Compound 60g] | – | – | – | > 10 | < 10 | > 10 | –
18 | Oc1ccc2oc3c(c2c1)CCN1CC2CC(Cc4ccccc4)C1C3C2 (stereo not drawn) [Compound 60h] | – | – | – | > 10 | > 10 | > 10 | –
19 | CCC1CC2CC3c4oc5ccc(O)cc5c4C[C@@H](C)N(C2)C13 (stereo partly drawn) [α-endo-52e] | > 100 | – | – | – | – | – | Emax (Human KOR [1]): 26%; Emax (Human MOR; read-out: Emax in parentheses, Human MOR): 24%
20 | CCC1(CC)CC2CC3c4oc5ccc(O)cc5c4C[C@@H](C)N(C2)C31 (stereo partly drawn) [α-endo-52f] | > 100 | – | > 100 | – | – | – | agonist activity at DOR (in words) (Human DOR): not active as agonist; agonist activity at KOR (in words) (Human KOR [1]): selective KOR agonist; EC50 (Human KOR [1]; EC50, induced BRET signal, Human KOR): 0.12 ± 0.014 µM; Emax (Human KOR [1]): 47%; agonist activity at MOR (in words) (Human MOR): not active as agonist
21 | CCC1CC2CC3c4oc5ccc(O)cc5c4C[C@@H](CC)N(C2)C13 (stereo partly drawn) [α-endo-52g] | > 100 | > 100 | > 100 | – | – | – | agonist activity at DOR (in words) (Human DOR): not active as agonist; IC50 (Human KOR [2]): 8.2 ± 0.5 µM; antagonist activity at KOR (in words) (Human KOR [2]): KOR antagonist; agonist activity at KOR (in words) (Human KOR [1]): not active as agonist; also recorded: no agonist activity; agonist activity at MOR (in words) (Human MOR): not active as agonist
22 | CC[C@@H]1Cc2c(oc3ccc(O)cc23)C2CC3CCC2N1C3 (stereo partly drawn) [α-endo-60f] | – | – | – | > 100 | > 10 | > 100 | –
23 | CC[C@H]1Cc2c(oc3ccc(O)cc23)C2CC3CCC2N1C3 (stereo partly drawn) [α-exo-60f] | – | – | – | < 10 | < 10 | < 10 | –
